We go through 7 compounds from patent US11965006B2, “Antimicrobial and anti-cancer therapy” (UNIVERSITY OF PITTSBURGH—OF THE COMMONWEALTH SYSTEM OF …, priority 2016, dated 2024).

Square brackets hold non-standard residues; d marks the D form. Ends that are not written are not given here. Peptide text beside a SMILES is read from it.

Common to all, as to format: cell-based
Test [1] relates to Klebsiella pneumonia multi-drug resistant (MDR) clinical isolates. In words: Bacterial growth (O.D. readings) of Kp isolates treated with D-amino acid substituted AMPs. The procedure:
(§1) Tables 3 and 4 provide the MIC data for the tested AMPs against a variety of infectious species. The following strains were tested: Enterococcus faecium MDR clinical isolates Ef 25153 and Ef 26125; methicillin-resistant Staphylococcus aureus (MRSA) clinical isolates USA300 and 150-10; Klebsiella pneumonia MDR clinical isolates C3, C5, A5, D7 and E6; and Pseudomonas aeruginosa MDR clinical isolates PA 82-8 and PA 129-5. […] Table 5 provides the data for the D-amino acid substituted AMPs and their bactericidal activities against various Klebsiella pneumonia multi-drug resistant (MDR) clinical isolates. All odd number Kp bacteria (isolated prior to colistin treatment; colistin sensitive) are paired with the corresponding even number Kp bacteria (isolated after colistin treatment; colistin resistant) from the same patient. O.D. readings represent the bacterial growth with a background reading of about 0.049+/−0.003.

In test [2] the test system is Klebsiella pneumonia MDR clinical isolates. The settings on record: 18 h. The procedure:
(§2) The bactericidal activities were examined using standard bacterial culture media (MHB) without the inclusion of human blood.
as §1

For test [3], the system named is methicillin-resistant Staphylococcus aureus (MRSA) clinical isolates. The settings on record: methicillin-resistant clinical isolates, 18 h. The procedure: as §2, §1
In test [4] the test system is Enterococcus faecium MDR clinical isolates. The settings on record: MDR clinical isolates, 18 h. As for the experimental part:
as §2, §1

For test [5], the system named is Pseudomonas aeruginosa MDR clinical isolates. The following applies: MDR clinical isolates, 18 h. The procedure:
as §2, §1

The subject of test [6] is P. aeruginosa lipopolysaccharide (LPS)-induced secretion of tumor necrosis factor (TNF) in Raw (264.7) Cells. In words: Neutralization of LPS-induced TNF secretion. The settings on record: 1 μg/ml LPS. The procedure: Anti-inflammatory activity is based on the determination of cytokine stimulation of major inflammatory (e.g. TNF) or anti-inflammatory (e.g., IL-10) cytokines. For in vitro studies, TNF is measured using culture medium from LPS-stimulated macrophage cultures in the presence or absence of peptide treatment. For in vivo studies, cytokine levels in bronchoalveolar lavage (BAL) fluid were quantified using the mouse cytokine multiplex panel assay (Milliplex; Millipore, Billerica, Mass.). The expressions of cytokines were analyzed using the Luminex assay system, based on manufacturer's instructions and our previous publication. Standard recombinant protein solution was used to generate a standard curve for each analyzed protein. Absolute cytokine concentrations were calculated from the standard curve for each cytokine.
A high dosage (1 μg/ml) of LPS was used to stimulate the TNF secretion in raw cells.

The mark [7] stands for this setting: Kp strain 1 (colistin sensitive), background about 0.049.
[8] abbreviates: Kp strain 2 (colistin resistant), background about 0.049.
Where [9] appears, read: Kp strain 3 (colistin sensitive).
[10] abbreviates: Kp strain 4 (colistin resistant).
Setting [11] is: Kp strain 5 (colistin sensitive).
The mark [12] stands for this setting: Kp strain 6 (colistin resistant).
[13] abbreviates: Kp strain 7 (colistin sensitive).
Setting [14] is: Kp strain 8 (colistin resistant).
The mark [15] stands for this setting: Kp strain 9 (colistin sensitive).
Setting [16] is: Kp strain 10 (colistin resistant).
Where [17] appears, read: Kp strain 11 (colistin sensitive).
Where [18] appears, read: Kp strain 12 (colistin resistant).
Setting [19] is: Kp strain 13 (colistin sensitive).
Where [20] appears, read: Kp strain 14 (colistin resistant).
[21] abbreviates: Kp strain 15 (colistin sensitive).
Where [22] appears, read: Kp strain 16 (colistin resistant).
[23] abbreviates: Kp strain 17 (colistin sensitive).
Where [24] appears, read: Kp strain 18 (colistin resistant).
Where [25] appears, read: Kp strain 19 (colistin sensitive).
The mark [26] stands for this setting: Kp strain 20 (colistin resistant).
Where [27] appears, read: Kp strain 21 (colistin sensitive).
Where [28] appears, read: Kp strain 22 (colistin resistant).
Where [29] appears, read: Kp strain 23 (colistin sensitive).
Where [30] appears, read: Kp strain 24 (colistin resistant).

Take `CC(C)[C@H](NC(=O)[C@H](Cc1c[nH]c2ccccc12)NC(=O)[C@H](CCCNC(=N)N)NC(=O)[C@@H](N)CCCNC(=N)N)C(=O)N[C@@H](CCCNC(=N)N)C(=O)N[C@@H](CCCNC(=N)N)C(=O)N[C@@H](C(=O)N[C@@H](CCCNC(=N)N)C(=O)N[C@@H](CCCNC(=N)N)C(=O)N[C@H](C(=O)N[C@@H](Cc1c[nH]c2ccccc12)C(=O)N[C@@H](CCCNC(=N)N)C(=O)N[C@@H](CCCNC(=N)N)C(=O)N[C@H](C(=O)N[C@@H](C(=O)N[C@@H](CCCNC(=N)N)C(=O)N[C@@H](C(=O)N[C@H](C(=O)N[C@@H](CCCNC(=N)N)C(=O)N[C@@H](CCCNC(=N)N)C(=O)N[C@@H](Cc1c[nH]c2ccccc12)C(=O)N[C@@H](C(=O)N[C@@H](CCCNC(=N)N)C(=O)N[C@@H](CCCNC(=N)N)C(=O)O)C(C)C)C(C)C)C(C)C)C(C)C)C(C)C)C(C)C)C(C)C` [SEQ ID No. 32] (H-RRWVRR[dV]RRVWRRV[dV]R[dV]VRRW[dV]RR-OH; N-terminus and C-terminus assumed): the O.D. reading was determined as 0.039 in test [1] (setting [7]); 0.044 in test [1] (setting [8]); 0.043 in test [1] (setting [9]); 0.042 in test [1] (setting [10]); 0.042 in test [1] (setting [11]); 0.107 in test [1] (setting [12]). Also, the O.D. reading in test [1] (setting [13]) amounted to 0.042; in test [1] (setting [14]), 0.04; in test [1] (setting [15]), 0.042; in test [1] (setting [16]), 0.048; in test [1] (setting [17]) it was 0.048; in test [1] (setting [18]) it was 0.05. Moreover, the O.D. reading in test [1] (setting [19]) is 0.048; in test [1] (setting [20]) it was 0.047; in test [1] (setting [21]) it was 0.048; in test [1] (setting [22]), 0.045; in test [1] (setting [23]), 0.045; in test [1] (setting [24]) it was 0.047. Further, the O.D. reading in test [1] (setting [25]) came to 0.048; in test [1] (setting [26]), 0.049; in test [1] (setting [27]) it was 0.051; in test [1] (setting [28]) it was 0.048; in test [1] (setting [29]) it was 0.048; in test [1] (setting [30]), 0.11.

In the case of `CC(C)[C@H](NC(=O)[C@H](Cc1c[nH]c2ccccc12)NC(=O)[C@H](CCCNC(=N)N)NC(=O)[C@@H](N)CCCNC(=N)N)C(=O)N[C@@H](CCCNC(=N)N)C(=O)N[C@@H](CCCNC(=N)N)C(=O)N[C@@H](C(=O)N[C@@H](CCCNC(=N)N)C(=O)N[C@@H](CCCNC(=N)N)C(=O)N[C@@H](C(=O)N[C@@H](Cc1c[nH]c2ccccc12)C(=O)N[C@@H](CCCNC(=N)N)C(=O)N[C@@H](CCCNC(=N)N)C(=O)N[C@H](C(=O)N[C@@H](C(=O)N[C@@H](CCCNC(=N)N)C(=O)N[C@@H](C(=O)N[C@@H](C(=O)N[C@@H](CCCNC(=N)N)C(=O)N[C@@H](CCCNC(=N)N)C(=O)N[C@@H](Cc1c[nH]c2ccccc12)C(=O)N[C@@H](C(=O)N[C@@H](CCCNC(=N)N)C(=O)N[C@@H](CCCNC(=N)N)C(=O)O)C(C)C)C(C)C)C(C)C)C(C)C)C(C)C)C(C)C)C(C)C` [SEQ ID No. 33] (H-RRWVRR[dV]RR[dV]WRRV[dV]R[dV][dV]RRW[dV]RR-OH; N-terminus and C-terminus assumed), the O.D. reading is on record as 0.104 in test [1] (setting [7]); 0.108 in test [1] (setting [8]); 0.048 in test [1] (setting [9]); 0.047 in test [1] (setting [10]); 0.053 in test [1] (setting [11]); 0.12 in test [1] (setting [12]). Besides, the O.D. reading in test [1] (setting [13]) was 0.046; in test [1] (setting [14]) it was 0.056; in test [1] (setting [15]), 0.043; in test [1] (setting [16]), 0.131; in test [1] (setting [17]), 0.057; in test [1] (setting [18]), 0.066. Also, the O.D. reading in test [1] (setting [19]) is on record as 0.05; in test [1] (setting [20]) it was 0.089; in test [1] (setting [21]) it was 0.048; in test [1] (setting [22]) it was 0.054; in test [1] (setting [23]) it was 0.044; in test [1] (setting [24]) it was 0.048. In addition, the O.D. reading was 0.049 in test [1] (setting [25]); 0.05 in test [1] (setting [26]); 0.048 in test [1] (setting [27]); 0.05 in test [1] (setting [28]); 0.047 in test [1] (setting [29]); 0.076 in test [1] (setting [30]).

Take “GVKKKWKKKLGLKLWLKISGVVLG [SEQ ID No. 24, reference compound]”: in test [2], the “MIC A5” value is 32 µM and the “MIC C3” value turned out to be 32 µM. Further, in test [3], the “MIC MRSA 150-10” value is over 32 µM and the “MIC MRSA USA300” value was over 32 µM. For the same compound, in test [4], the “MIC Ef 25153” value was over 32 µM and the “MIC Ef 26125” value amounted to 16 µM. Further, in test [5], the “MIC PA 82-8” value is over 32 µM and the “MIC PA 129-5” value was under 16 µM. In addition, the “neutralizing LPS-induced TNF secretion” value in test [6] is reported as “Display Neutralizing Activities”.

As for “ILKPGGGTSGGLLGGLLGKVTSVIPGLNNI [SEQ ID No. 1, reference compound]”, in test [2], the “MIC A5” value is over 32 µM, the “MIC C3” value is over 32 µM, the “MIC C5” value is over 32 µM and the “MIC D7” value is over 32 µM. For the same compound, the “MIC E6” value in test [2] was over 32 µM. In addition, in test [3], the “MIC MRSA 150-10” value is over 32 µM and the “MIC MRSA USA300” value is over 32 µM. In test [4], the “MIC Ef 25153” value was over 32 µM and the “MIC Ef 26125” value was over 32 µM. Further, in test [5], the “MIC PA 82-8” value was over 32 µM and the “MIC PA 129-5” value is over 32 µM. Further, the “neutralizing LPS-induced TNF secretion” value in test [6] is reported as “display neutralizing activities”.

In the case of “LKKWWKKVKGLLGGLLGKVKKVIK [SEQ ID No. 17]”, in test [2], the “MIC A5” value was over 4 µM, the “MIC C3” value was under 2 µM, the “MIC C5” value was 4 µM and the “MIC D7” value is under 2 µM. The “MIC E6” value in test [2] is under 2 µM. Moreover, in test [3], the “MIC MRSA 150-10” value was under 2 µM and the “MIC MRSA USA300” value was under 2 µM. Besides, in test [4], the “MIC Ef 25153” value was under 2 µM and the “MIC Ef 26125” value is under 2 µM. Further, in test [5], the “MIC PA82 82-8” value stood at 4 µM and the “MIC PA 129-5” value is under 2 µM.

With “LKKWWKKVKGLLGGLLGKVKSVIK [SEQ ID No. 16]”, in test [2], the “MIC A5” value was over 4 µM, the “MIC C3” value was under 2 µM, the “MIC C5” value is 4 µM and the “MIC D7” value was under 2 µM. Further, in test [2], the “MIC E6” value is under 2 µM. In test [3], the “MIC MRSA 150-10” value worked out at 4 µM and the “MIC MRSA USA300” value was under 2 µM. Moreover, in test [4], the “MIC Ef 25153” value was under 2 µM and the “MIC Ef 26125” value was under 2 µM. Further, in test [5], the “MIC PA82 82-8” value came to 4 µM and the “MIC PA 129-5” value came to 4 µM.

For the compound “LKKWWKTSKGLLGGLLGKVTSVIK [SEQ ID No. 13]”, in test [2], the “MIC A5” value is over 16 µM, the “MIC C3” value is over 16 µM, the “MIC C5” value was determined as 16 µM and the “MIC D7” value was under 8 µM. In addition, the “MIC E6” value in test [2] was under 8 µM. Besides, in test [3], the “MIC MRSA USA300” value is under 8 µM. For the same compound, in test [4], the “MIC Ef 25153” value was under 16 µM and the “MIC Ef 26125” value is under 8 µM. Also, in test [5], the “MIC PA82 82-8” value came out at 16 µM and the “MIC PA 129-5” value was under 16 µM. Further, the “neutralizing LPS-induced TNF secretion” value in test [6] is “Display Neutralizing Activities”.
